Assay results from PubChem BioAssay (NCI).
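Test compounds were applied to cells in 96-well plates for 48 hours at 5 doses. At the TGI there is no net growth.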

Tests used:
Experiment in all cases: NCI tumour cell line growth inhibition, 48 h
HT29 colon = system: HT29 colon
UACC-257 melanoma = system: UACC-257 melanoma
DU-145 prostate = system: DU-145 prostate
HS 578T breast = system: HS 578T breast
SR leukemia = system: SR leukemia
HOP-92 NSCLC = system: HOP-92 NSCLC
MDA-N = system: MDA-N
SK-MEL-5 melanoma = system: SK-MEL-5 melanoma
KM12 colon = system: KM12 colon
HOP-62 NSCLC = system: HOP-62 NSCLC
COLO 205 colon = system: COLO 205 colon
NCI-H460 lung = system: NCI-H460 lung
MALME-3M melanoma = system: MALME-3M melanoma
SK-OV-3 ovarian = system: SK-OV-3 ovarian

SMILES	TGI (HT29 colon)	TGI (UACC-257 melanoma)	TGI (DU-145 prostate)	TGI (HS 578T breast)	TGI (SR leukemia)	TGI (HOP-92 NSCLC)	TGI (MDA-N)	TGI (SK-MEL-5 melanoma)	TGI (KM12 colon)	TGI (HOP-62 NSCLC)	TGI (COLO 205 colon)	TGI (NCI-H460 lung)	TGI (MALME-3M melanoma)	TGI (SK-OV-3 ovarian)
O=C(O)CCC1(c2ccccc2)NC(=O)NC1=O (stereo not given)	> 100 µM	> 100 µM	> 100 µM	> 100 µM	> 100 µM	> 100 µM	> 100 µM	> 100 µM	> 100 µM	> 100 µM	> 100 µM	> 100 µM	> 100 µM	> 100 µM
CC(Cc1ccc(O)c(O)c1)C(C)Cc1ccc(O)c(O)c1 (stereo not given)	51.5 µM	37.9 µM	46.4 µM	52.5 µM	> 74.3 µM	12.2 µM	26.3 µM	32.9 µM	33.5 µM	34.1 µM	35.9 µM	35 µM	29.5 µM	84 µM
CN1C[C@@H]2CCCN2P1Oc1cccc2cccnc12 (stereo not given in full)	> 100 µM	> 100 µM	> 100 µM	68.1 µM	> 100 µM	> 100 µM	> 100 µM	> 100 µM	> 100 µM	> 100 µM	> 100 µM	> 100 µM	> 100 µM	> 100 µM
N#Cc1c(NC(=S)NCc2ccccc2)sc2c1CCN(N1CCc3c(sc(NC(=S)NCc4ccccc4)c3C#N)C1)C2	> 100 µM	> 100 µM	> 100 µM	> 100 µM	> 100 µM	> 100 µM	> 100 µM	> 100 µM	> 100 µM	> 100 µM	> 100 µM	> 100 µM	> 100 µM	> 100 µM
C=C(Cl)C(Cl)(CBr)CCC(Cl)C(C)(C)Cl (stereo not given)	0.968 µM	3.79 µM	3.31 µM	0.284 µM	39.4 µM	2.52 µM	7.55 µM	24.7 µM	1.94 µM	4.04 µM	10.5 µM	2.83 µM	22.8 µM	70.8 µM
O=C(O)c1ccccc1/C=N\NC1=NCCN1	> 100 µM	> 100 µM	> 100 µM	> 100 µM	> 100 µM	> 100 µM	> 100 µM	> 100 µM	> 100 µM	> 100 µM	> 100 µM	> 100 µM	> 100 µM	> 100 µM
Cn1c(=O)n(CC(Br)CBr)c(=O)n(CC(Br)CBr)c1=O (stereo not given)	54.6 µM	> 100 µM	> 100 µM	> 100 µM	37.4 µM	> 100 µM	> 100 µM	32.9 µM	> 100 µM	> 100 µM	43.4 µM	> 100 µM	> 100 µM	> 100 µM
O=C(NC(Nc1ccc(F)c(Cl)c1)(C(F)(F)F)C(F)(F)F)C(C(F)(F)F)C(F)(F)F	67.9 µM	> 100 µM	> 100 µM	64.7 µM	> 100 µM	> 100 µM	> 100 µM	81.3 µM	> 100 µM	> 100 µM	74.4 µM	> 100 µM	62 µM	> 100 µM
Clc1nc2c(-c3cccs3)ncnc2n1Cc1ccccc1	> 100 µM	61.9 µM	6.18 µM	87.8 µM	> 100 µM	62 µM	> 100 µM	> 100 µM	37.5 µM	> 100 µM	> 100 µM	> 83.2 µM	> 100 µM	> 95.4 µM
CCCc1c2c3ccccc3nc-2nc2ccccn12	> 100 µM	> 100 µM	> 100 µM	> 100 µM	> 100 µM	> 100 µM	> 100 µM	> 100 µM	> 100 µM	90.7 µM	> 100 µM	> 100 µM	> 100 µM	> 100 µM
COC/C=C\[C@@]1(O)CCCC[C@@H]1CC(OC)OC	> 100 µM	> 100 µM	> 100 µM	> 100 µM	98.9 µM	> 100 µM	> 100 µM	> 100 µM	> 100 µM	> 100 µM	> 100 µM	> 90 µM	> 100 µM	> 100 µM
CCC(=O)NCCc1c[nH]c2ccc(OC)cc12	> 100 µM	> 100 µM	> 100 µM	> 100 µM	> 100 µM	> 100 µM	> 100 µM	> 100 µM	> 100 µM	> 100 µM	> 100 µM	> 100 µM	> 100 µM	> 100 µM
CCOC(=O)c1c(SCCO)n(-c2ccccc2)c(=S)n(-c2ccccc2)c1=O	> 100 µM	> 100 µM	> 100 µM	> 100 µM	> 100 µM	> 100 µM	> 100 µM	> 100 µM	> 100 µM	> 100 µM	> 100 µM	> 100 µM	> 100 µM	> 100 µM
COC(=O)C1=C(C)NC(C)=C([N+](=O)[O-])C1c1cccc(NO)c1 (stereo not given)	9.79 µM	28.1 µM	> 100 µM	38.6 µM	8.93 µM	28 µM	4.14 µM	15 µM	6.85 µM	> 100 µM	4.74 µM	17.5 µM	22.9 µM	> 85.6 µM
Nc1c(C(=O)c2ccccc2)[nH]c(NCc2ccccc2)c1C(=S)Nc1ccccc1	> 100 µM	> 100 µM	> 100 µM	> 100 µM	> 100 µM	> 100 µM	> 100 µM	> 100 µM	> 100 µM	> 100 µM	> 100 µM	> 100 µM	> 100 µM	> 100 µM
